In US10087229B2, “Peptide compound” (TAKEDA PHARMACEUTICAL COMPANY LIMITED, priority 2013, dated 2018):
Square brackets hold non-standard residues; d marks the D form. Peptide text beside a SMILES is read from it. * marks the point of attachment. αMeY = C[C@](N)(Cc1ccc(O)cc1)C(=O)O; αMeF = C[C@](N)(Cc1ccccc1)C(=O)O; 4Pal = N[C@@H](Cc1ccncc1)C(=O)O; Cha = N[C@@H](CC1CCCCC1)C(=O)O; Aib = CC(C)(N)C(=O)O; Bz = O=C(c1ccccc1)*

Test system: male C57BL/6J mouse
Test: 2-days continuous subcutaneous administration test (feeding suppressive activity)
Type: in vivo
Settings: 10 nmol/kg/day, subcutaneous Alzet pump, 2-days cumulative food consumption, control (solvent alone) = 0%
Description: 2-Days Continuous Subcutaneous Administration Test
The feeding suppressive activity of a test compound was examined by the method described below.
The test compound was dissolved in a solvent (50% DMSO) so that sustained release would occur at 10 nmol/kg/day, and the solution was filled in the Alzet Pump (DURECT Corporation, model: 1003D). The pump thus filled with the solution to be administered was immersed in physiological saline for priming, and then used. The pump was embedded by the following method. Each male C57BL/6J mouse at 8-9 weeks of age (20-26° C., allowed to take food and water ad libitum; 12-hour bright-12-hour dark cycle) was anesthetized; the skin in the upper back thereof was incised, and the above-mentioned pump was embedded subcutaneously; the incision was sutured. After weighing, this mouse was returned to the rearing cage (reared alone), and given previously weighed food; food consumption as of 2 days after the start of administration was measured. The food consumption was calculated by subtracting the amount of remaining food from the weight of the food given on the day of the start of administration. When the food consumption of a control group receiving administration of the solvent alone was regarded as a suppression rate of 0%, the feeding suppressive activity of each test compound was evaluated on the basis of 2-days cumulative food consumption after the start of administration. The food intake suppression rate (%) of the test compound was defined as (Food consumption of the control group−Food consumption of the test compound-administered group)/Food consumption of the control group×100.

SMILES | Food intake suppression (%)
CC[C@H](C)[C@H](NC(=O)C(C)(C)NC(=O)[C@H](Cc1ccc(O)cc1)NC(=O)[C@H](CC(=O)O)NC(=O)[C@H](CO)NC(=O)[C@@H](NC(=O)[C@](C)(Cc1ccccc1)NC(=O)[C@@H](NC(=O)CNC(=O)[C@H](CCC(=O)O)NC(=O)C(C)(C)NC(=O)[C@@H](N)Cc1ccc(O)cc1)[C@@H](C)O)[C@@H](C)O)C(=O)N[C@@H](CC1CCCCC1)C(=O)N[C@@H](CC(C)C)C(=O)N[C@@H](CC(=O)O)C(=O)N[C@@H](CCCCN)C(=O)N[C@@H](CCC(N)=O)C(=O)N[C@@H](C)C(=O)N[C@@H](CCC(N)=O)C(=O)N[C@@H](C)C(=O)N[C@@H](CCC(=O)O)C(=O)N[C@@H](Cc1ccccc1)C(=O)N[C@H](C(=O)N[C@@H](CCCCN)C(=O)N[C@@H](Cc1c[nH]c2ccccc12)C(=O)N[C@@H](CC(C)C)C(=O)N[C@@H](CC(C)C)C(=O)N[C@@H](CCCCN)C(=O)NCC(=O)NCC(=O)N1CCC[C@H]1C(=O)N[C@@H](CO)C(=O)N[C@@H](CO)C(=O)NCC(=O)N[C@@H](C)C(=O)N1CCC[C@H]1C(=O)N1CCC[C@H]1C(=O)N1CCC[C@H]1C(=O)N[C@@H](CO)C(=O)N[C@@H](CCCCN)C(N)=O)C(C)C [Example 14] (H-Y[Aib]EGT[αMeF]TSDY[Aib]I[Cha]LDKQAQAEFVKWLLKGGPSSGAPPPSK-NH2) | 47.47%
CC[C@H](C)[C@H](NC(=O)C(C)(C)NC(=O)[C@H](Cc1ccc(O)cc1)NC(=O)[C@H](CC(=O)O)NC(=O)[C@H](CO)NC(=O)[C@@H](NC(=O)[C@](C)(Cc1ccccc1)NC(=O)[C@@H](NC(=O)CNC(=O)[C@H](CCC(=O)O)NC(=O)C(C)(C)NC(=O)[C@@H](N)Cc1ccc(O)cc1)[C@@H](C)O)[C@@H](C)O)C(=O)NC(C)(C)C(=O)N[C@@H](CC(C)C)C(=O)N[C@@H](CC(=O)O)C(=O)N[C@@H](CCCCN)C(=O)N[C@@H](CCC(N)=O)C(=O)N[C@@H](C)C(=O)N[C@@H](CCC(N)=O)C(=O)N[C@@H](CO)C(=O)N[C@@H](CCC(=O)O)C(=O)N[C@@H](Cc1ccccc1)C(=O)N[C@H](C(=O)N[C@@H](CCCCN)C(=O)N[C@@H](Cc1c[nH]c2ccccc12)C(=O)N[C@@H](CC(C)C)C(=O)N[C@@H](CC(C)C)C(=O)N[C@@H](CCCCN)C(=O)NCC(=O)NCC(=O)N1CCC[C@H]1C(=O)N[C@@H](CO)C(=O)N[C@@H](CO)C(=O)NCC(=O)N[C@@H](C)C(=O)N1CCC[C@H]1C(=O)N1CCC[C@H]1C(=O)N1CCC[C@H]1C(=O)N[C@@H](CO)C(N)=O)C(C)C [Example 8] (H-Y[Aib]EGT[αMeF]TSDY[Aib]I[Aib]LDKQAQSEFVKWLLKGGPSSGAPPPS-NH2) | 48.34%
CC(C)C[C@H](NC(=O)[C@H](CC(C)C)NC(=O)[C@H](Cc1c[nH]c2ccccc12)NC(=O)[C@H](CCCCN)NC(=O)[C@@H](NC(=O)[C@H](Cc1ccccc1)NC(=O)[C@H](CCC(=O)O)NC(=O)[C@H](C)NC(=O)[C@H](CCC(N)=O)NC(=O)[C@H](C)NC(=O)[C@H](CCC(N)=O)NC(=O)[C@H](CCCCN)NC(=O)[C@H](CC(=O)O)NC(=O)[C@H](CC(C)C)NC(=O)C(C)(C)NC(=O)[C@H](CCCCN)NC(=O)C(C)(C)NC(=O)[C@H](Cc1ccc(O)cc1)NC(=O)[C@H](CC(=O)O)NC(=O)[C@H](CO)NC(=O)[C@@H](NC(=O)[C@](C)(Cc1ccccc1)NC(=O)[C@@H](NC(=O)CNC(=O)[C@H](CCC(=O)O)NC(=O)C(C)(C)NC(=O)[C@@H](N)Cc1ccc(O)cc1)[C@@H](C)O)[C@@H](C)O)C(C)C)C(=O)N[C@@H](CCCCN)C(=O)NCC(=O)NCC(=O)N1CCC[C@H]1C(=O)N[C@@H](CO)C(=O)N[C@@H](CO)C(=O)NCC(=O)N[C@@H](C)C(=O)N1CCC[C@H]1C(=O)N1CCC[C@H]1C(=O)N1CCC[C@H]1C(=O)N[C@@H](CO)C(=O)N[C@@H](CCCCN)C(N)=O [Example 9] (H-Y[Aib]EGT[αMeF]TSDY[Aib]K[Aib]LDKQAQAEFVKWLLKGGPSSGAPPPSK-NH2) | 45.23%
CC(C)C[C@H](NC(=O)[C@H](CC(C)C)NC(=O)[C@H](Cc1c[nH]c2ccccc12)NC(=O)[C@H](CCCCN)NC(=O)[C@@H](NC(=O)[C@H](Cc1ccccc1)NC(=O)[C@H](CCC(=O)O)NC(=O)[C@H](C)NC(=O)[C@H](CCC(N)=O)NC(=O)[C@H](C)NC(=O)[C@H](CCC(N)=O)NC(=O)[C@H](CCCCN)NC(=O)[C@H](CC(=O)O)NC(=O)[C@H](CC(C)C)NC(=O)C(C)(C)NC(=O)[C@H](Cc1ccncc1)NC(=O)C(C)(C)NC(=O)[C@H](Cc1ccc(O)cc1)NC(=O)[C@H](CC(=O)O)NC(=O)[C@H](CO)NC(=O)[C@@H](NC(=O)[C@](C)(Cc1ccccc1)NC(=O)[C@@H](NC(=O)CNC(=O)[C@H](CCC(=O)O)NC(=O)C(C)(C)NC(=O)[C@@H](N)Cc1ccc(O)cc1)[C@@H](C)O)[C@@H](C)O)C(C)C)C(=O)N[C@@H](CCCCN)C(=O)NCC(=O)NCC(=O)N1CCC[C@H]1C(=O)N[C@@H](CO)C(=O)N[C@@H](CO)C(=O)NCC(=O)N[C@@H](C)C(=O)N1CCC[C@H]1C(=O)N1CCC[C@H]1C(=O)N1CCC[C@H]1C(=O)N[C@@H](CO)C(=O)N[C@@H](CCCCN)C(N)=O [Example 12] (H-Y[Aib]EGT[αMeF]TSDY[Aib][4Pal][Aib]LDKQAQAEFVKWLLKGGPSSGAPPPSK-NH2) | 55.07%
CC[C@H](C)[C@H](NC(=O)C(C)(C)NC(=O)[C@H](Cc1ccc(O)cc1)NC(=O)[C@H](CC(=O)O)NC(=O)[C@H](CO)NC(=O)[C@@H](NC(=O)[C@](C)(Cc1ccccc1)NC(=O)[C@@H](NC(=O)CNC(=O)[C@H](CCC(=O)O)NC(=O)C(C)(C)NC(=O)[C@H](Cc1ccc(O)cc1)NC(=O)c1ccccc1)[C@@H](C)O)[C@@H](C)O)C(=O)NC(C)(C)C(=O)N[C@@H](CC(C)C)C(=O)N[C@@H](CC(=O)O)C(=O)N[C@@H](CCCCN)C(=O)N[C@@H](CCC(N)=O)C(=O)N[C@@H](C)C(=O)N[C@@H](CCC(N)=O)C(=O)N[C@@H](C)C(=O)N[C@@H](CCC(=O)O)C(=O)N[C@@H](Cc1ccccc1)C(=O)N[C@H](C(=O)N[C@@H](CCCCN)C(=O)N[C@@H](Cc1c[nH]c2ccccc12)C(=O)N[C@@H](CC(C)C)C(=O)N[C@@H](CC(C)C)C(=O)N[C@@H](CCCCN)C(=O)NCC(=O)NCC(=O)N1CCC[C@H]1C(=O)N[C@@H](CO)C(=O)N[C@@H](CO)C(=O)NCC(=O)N[C@@H](C)C(=O)N1CCC[C@H]1C(=O)N1CCC[C@H]1C(=O)N1CCC[C@H]1C(=O)N[C@@H](CO)C(=O)N[C@@H](CCCCN)C(N)=O)C(C)C [Example 19] (Bz-Y[Aib]EGT[αMeF]TSDY[Aib]I[Aib]LDKQAQAEFVKWLLKGGPSSGAPPPSK-NH2) | 34.79%
CC[C@H](C)[C@H](NC(=O)C(C)(C)NC(=O)[C@H](Cc1ccc(O)cc1)NC(=O)[C@H](CC(=O)O)NC(=O)[C@H](CO)NC(=O)[C@@H](NC(=O)[C@](C)(Cc1ccccc1)NC(=O)[C@@H](NC(=O)CNC(=O)[C@H](CCC(=O)O)NC(=O)C(C)(C)NC(=O)[C@@H](N)Cc1ccc(O)cc1)[C@@H](C)O)[C@@H](C)O)C(=O)N[C@@](C)(Cc1ccc(O)cc1)C(=O)N[C@@H](CC(C)C)C(=O)N[C@@H](CC(=O)O)C(=O)N[C@@H](CCCCN)C(=O)N[C@@H](CCC(N)=O)C(=O)N[C@@H](C)C(=O)N[C@@H](CCC(N)=O)C(=O)N[C@@H](C)C(=O)N[C@@H](CCC(=O)O)C(=O)N[C@@H](Cc1ccccc1)C(=O)N[C@H](C(=O)N[C@@H](CCCCN)C(=O)N[C@@H](Cc1c[nH]c2ccccc12)C(=O)N[C@@H](CC(C)C)C(=O)N[C@@H](CC(C)C)C(=O)N[C@@H](CCCCN)C(=O)NCC(=O)NCC(=O)N1CCC[C@H]1C(=O)N[C@@H](CO)C(=O)N[C@@H](CO)C(=O)NCC(=O)N[C@@H](C)C(=O)N1CCC[C@H]1C(=O)N1CCC[C@H]1C(=O)N1CCC[C@H]1C(=O)N[C@@H](CO)C(=O)N[C@@H](CCCCN)C(N)=O)C(C)C [Example 17] (H-Y[Aib]EGT[αMeF]TSDY[Aib]I[αMeY]LDKQAQAEFVKWLLKGGPSSGAPPPSK-NH2) | 55.42%
CC[C@H](C)[C@H](NC(=O)C(C)(C)NC(=O)[C@H](Cc1ccc(O)cc1)NC(=O)[C@H](CC(=O)O)NC(=O)[C@H](CO)NC(=O)[C@@H](NC(=O)[C@](C)(Cc1ccccc1)NC(=O)[C@@H](NC(=O)CNC(=O)[C@H](CCC(=O)O)NC(=O)C(C)(C)NC(=O)[C@@H](N)Cc1ccc(O)cc1)[C@@H](C)O)[C@@H](C)O)C(=O)N[C@@](C)(Cc1ccccc1)C(=O)N[C@@H](CC(C)C)C(=O)N[C@@H](CC(=O)O)C(=O)N[C@@H](CCCCN)C(=O)N[C@@H](CCC(N)=O)C(=O)N[C@@H](C)C(=O)N[C@@H](CCC(N)=O)C(=O)N[C@@H](C)C(=O)N[C@@H](CCC(=O)O)C(=O)N[C@@H](Cc1ccccc1)C(=O)N[C@H](C(=O)N[C@@H](CCCCN)C(=O)N[C@@H](Cc1c[nH]c2ccccc12)C(=O)N[C@@H](CC(C)C)C(=O)N[C@@H](CC(C)C)C(=O)N[C@@H](CCCCN)C(=O)NCC(=O)NCC(=O)N1CCC[C@H]1C(=O)N[C@@H](CO)C(=O)N[C@@H](CO)C(=O)NCC(=O)N[C@@H](C)C(=O)N1CCC[C@H]1C(=O)N1CCC[C@H]1C(=O)N1CCC[C@H]1C(=O)N[C@@H](CO)C(=O)N[C@@H](CCCCN)C(N)=O)C(C)C [Example 13] (H-Y[Aib]EGT[αMeF]TSDY[Aib]I[αMeF]LDKQAQAEFVKWLLKGGPSSGAPPPSK-NH2) | 57.12%
